According to patent US20210275488A1, “NOVEL COMPOUND ISOLATED FROM CERVI PARVUM CORNU, AND PHARMACEUTICAL USES THEREOF” (FNG RESEARCH CO., LTD., priority 2018, published 2021):

Columns and labels:
[1] = system: peritoneal macrophages; experiment: Evaluation of cytotoxicity using MTT assay; format: cell-based, C57BL/6 mice; details: 24 hours
Description: (§1) As experimental animals, 8-week-old C57BL/6 mice were bred for 7 days under the environment of a temperature of 22±2° C., a relative humidity of 65±5% and a 12-hour cycle in light and dark, and then adapted to the laboratory environment, and then used for the experiment. Solid feed (Samyang feed) and water were sufficiently supplied.
(§2) HBSS was intraperitoneally injected into a mouse to extract macrophages, which was centrifuged at 3,000 rpm for 5 minutes, and then 100 units/mL of penicillin/streptomycin was added to DMEM medium with 10% fetal bovine serum (FBS), and peritoneal macrophage was isolated. It was incubated in a 37° C., 5% CO2 incubator for 24 hours, and then used in the experiment.
100 uL of the cultured peritoneal macrophages were dispensed into a 96-well plate at 3×10^5 cells/well and cultured overnight. After removing the medium, the peritoneal macrophage was treated with the compounds of Example 1 (PCA glycerol) and Example 2 (CPA glycerol) at different concentrations (10 μg/ml, 100 μg/ml, and 200 μg/ml, respectively), and then incubated for 24 hours in a 37° C., 5% CO2 incubator. After incubation, the medium was removed, 40 uL of MTT (5 mg/mL) reagent was dispensed and incubated for 4 hours in a CO2 incubator, the MTT reagent was removed, and 600 uL of DMSO reagent was dispensed, and then left at room temperature for 30 minutes. Then, the absorbance (OD) was measured at 540 nm with a microplate reader.

[2] = system: NO production; experiment: Inhibition of NO production in LPS-treated peritoneal macrophages (Griess reagent); format: cell-based, C57BL/6 mice; details: 24 hours, LPS control group = 100
Description: as §1, §2
The cultured peritoneal macrophages were suspended in DMEM containing 10% FBS, dispensed into a 96-well plate at 5×10^5 cells/well and incubated for 24 hours in a 37° C., 5% CO2 incubator, and replaced with new DMEM medium. Then, the peritoneal macrophages were treated with each of the compounds of Examples 1 and 2 and Comparative Example at different concentrations (10 μg/ml, 100 μg/ml, and 200 μg/ml, respectively), and LPS (1 μg/ml) was treated. Then, the cells were incubated for 24 hours. After incubation, the supernatant was separated, centrifuged at 3000 rpm for 5 minutes, and the separated supernatant was dispensed onto a new microplate. The normal group was untreated, and the control group was treated with only LPS (1 μg/ml) on the peritoneal macrophages.
The same amount of Griess reagent (1% sulfanilamide, 0.1% naphthyl-ethylenediamine dihydrochloride, 2% phosphoric acid) was treated, and reacted at room temperature for 10 minutes. After the culture solution was reacted with the Griess solution for […], the absorbance (OD) was measured at 540 nm.

[3] = system: neutropenia induced by an anticancer agent (gemcitabine); experiment: Mouse experiment of antineoplastic chemotherapy-induced neutropenia (gemcitabine); format: in vivo, C57BL/6 mice; details: for Number of neutrophils: Gemcitabine (50 mg/kg) i.p. daily 3 weeks, compound 50 mg/kg oral daily 3 weeks, neutrophils in 1 μl of blood; for reduction in the number of neutrophils: 3 weeks, relative to normal group
Description: 50 mg/kg of gemcitabine, used as an anticancer agent, was injected intraperitoneally into C57BL/6 mice every day for 3 weeks and used as a control group. 50 mg/kg of the compounds of Example 1, Example 2, and Comparative Example 1 were orally administered for 3 weeks every day, and after 3 weeks, the number of neutrophils in 1 μl of blood was measured using an automatic blood sample analyzer (Auto Hematology Analyzer BC-5900, Mindray), and the results are shown in Table 7 and FIG. 11 below.

[4] = system: neutropenia induced by an anticancer agent (tamoxifen); experiment: Mouse experiment of antineoplastic chemotherapy-induced neutropenia (tamoxifen); format: in vivo, C57BL/6 mice; details: for Number of neutrophils: Tamoxifen (50 mg/kg) i.p. daily 3 weeks, compound 50 mg/kg oral daily 3 weeks, neutrophils in 1 μl of blood; for decrease in the number of neutrophils: tamoxifen 50 mg/kg plus compound 50 mg/kg oral
Description: 50 mg/kg of Tamoxifen, used as an anticancer agent, was intraperitoneally injected into C57BL/6 mice every day for 3 weeks and used as a control group, and 50 mg/kg of the compounds of Example 1, Example 2, and Comparative Example 1 were orally administered for 3 weeks every day, and after 3 weeks, the number of neutrophils in 1 μl of blood was measured using an automatic blood sample analyzer (Auto Hematology Analyzer BC-5900, Mindray), and the results are shown in Table 8 and FIG. 12 below.

[5] = system: IL-1β; experiment: Inhibition of IL-1β production in LPS-induced mouse peritoneal macrophages (ELISA); format: cell-based; details: LPS (1 μg/ml), 12 hours
Description: as §1, §2
(§3) The secretion amount of IL-6, IL-1β and TNF-α secreted from mouse peritoneal macrophages induced by lipopolysaccharide (LPS), which is an inflammatory response inducer, was measured by an ELISA assay (Millipore, USA) to thereby evaluate the anti-inflammatory activity.
(§4) In order to obtain a cell culture solution, mouse peritoneal macrophages were adjusted to 3×10^5 cells/mL, inoculated into a 96-well plate, cultured for 24 hours, and then the compounds of Example 1 (PCA glycerol), Example 2 (CPA glycerol) and Comparative Example (PLA glycerol) were treated at different concentrations (10 μg/ml, 100 μg/ml, and 200 μg/ml, respectively), and LPS (1 μg/ml) was treated. The normal group was untreated, and the control group was treated with only LPS (1 μg/ml) on peritoneal macrophages. After culturing for 12 hours, a supernatant was obtained by centrifugation. ELISA was run in microplates coated with anti-mouse IL-6, IL-1β and TNF-α as the capture antibody. Then, the cells were washed with phosphate buffered saline (PBST) containing 0.05% Tween 20, blocked with 10% FBS, and washed with PBST. The cell culture supernatant was dispensed into the wells, and reacted at room temperature for 2 hours. After the reaction, washing was performed with PBST and dilute biotinylated anti-mouse IL-6, IL-1β and TNF-α detection antibody and streptavidin-horseradish peroxydase conjugate were dispensed and reacted at room temperature for 1 hour. Then, washing was performed again with PBST, and an OPD solution was added, and then the mixture was subjected to dark reaction at room temperature for 30 minutes. After the reaction was terminated with 2N H2504, the absorbance was measured at 450 nm using a microplate reader.

[6] = system: IL-6; experiment: Inhibition of IL-6 production in LPS-induced mouse peritoneal macrophages (ELISA); format: cell-based; details: LPS (1 μg/ml), 12 hours
Description: as §1, §2, §3, §4

[7] = system: TNF-α; experiment: Inhibition of TNF-α production in LPS-induced mouse peritoneal macrophages (ELISA); format: cell-based; details: LPS (1 μg/ml), 12 hours
Description: as §1, §2, §3, §4

[8] = gemcitabine 50 mg/kg plus compound 50 mg/kg oral
[9] = 3 weeks, relative to normal group

| Molecule | Cell viability (%) ([1]; 10 μg/ml) | Cell viability (%) ([1]; 100 μg/ml) | Cell viability (%) ([1]; 200 μg/ml) | NO production rate (%) ([2]; compound 10 μg/ml) | NO production rate (%) ([2]; compound 100 μg/ml) | NO production rate (%) ([2]; compound 200 μg/ml) | Number of neutrophils [3] [µL⁻¹] | reduction in the number of neutrophils [3, 8] | Number of neutrophils [4] [µL⁻¹] | decrease in the number of neutrophils [4, 9] | IL-1β Production amount ([5]; compound 10 μg/ml) [pg/mL] | IL-1β Production amount ([5]; compound 100 μg/ml) [pg/mL] | IL-1β Production amount ([5]; compound 200 μg/ml) [pg/mL] | IL-6 production amount ([6]; compound 10 μg/ml) [pg/mL] | IL-6 production amount ([6]; compound 100 μg/ml) [pg/mL] | IL-6 production amount ([6]; compound 200 μg/ml) [pg/mL] | TNF-α production amount ([7]; compound 10 μg/ml) [pg/mL] | TNF-α production amount ([7]; compound 100 μg/ml) [pg/mL] | TNF-α production amount ([7]; compound 200 μg/ml) [pg/mL] | also measured |
| --- | --- | --- | --- | --- | --- | --- | --- | --- | --- | --- | --- | --- | --- | --- | --- | --- | --- | --- | --- | --- |
| 1-Palmitoyl-2-Conjugated-Linoleoyl-3-Acetyl Glycerol [Example 1] | 100 ± 2.1 | 98.3 ± 1.9 | 98.1 ± 1.2 | 52 ± 3 | 43 ± 3 | 37 ± 4 | 1198 ± 43 | about 2% | 1146 ± 63 | about 6.3% | 40 ± 2.9 | 28 ± 2.3 | 26 ± 2.8 | 321 ± 22 | 225 ± 23 | 180 ± 25 | 170 ± 8 | 153 ± 11 | 121 ± 10 | – |
| Nc1ccn([C@@H]2O[C@H](CO)[C@@H](O)C2(F)F)c(=O)n1 [gemcitabine, reference compound] | – | – | – | – | – | – | – | – | – | – | – | – | – | – | – | – | – | – | – | reduction in the number of neutrophils ([3]; mice treated with gemcitabine 50 mg/kg i.p. alone (control group)): about 45% |
| 1-Conjugated-Linoeoyl-2-Palmitoyl-3-Acetyl Glycerol [Example 2] | 100 ± 0.9 | 98.3 ± 1.7 | 98.0 ± 2.8 | 50 ± 2 | 44 ± 3 | 34 ± 1 | 1142 ± 62 | 6.7% | 1124 ± 57 | about 8.2% | 40 ± 1.7 | 32 ± 2.4 | 28 ± 1.7 | 325 ± 13 | 234 ± 20 | 179 ± 17 | 175 ± 7 | 151 ± 10 | 123 ± 7 | – |
| CCCCC/C=C\C/C=C\CCCCCCCC(=O)OC(COC(C)=O)COC(=O)CCCCCCCCCCCCCCC (centres unmarked) [Comparative Example, 1-Palmitoyl-2-Linoleoyl-3-Acetyl Glycerol, reference compound] | – | – | – | 56 ± 3 | 45 ± 2 | 41 ± 3 | 1047 ± 42 | 14.5% | 1066 ± 88 | 12.9% | 43 ± 2.2 | 31 ± 2.4 | 31 ± 3.1 | 364 ± 16 | 251 ± 24 | 203 ± 25 | 184 ± 21 | 155 ± 12 | 137 ± 7 | – |
| CC/C(=C(\c1ccccc1)c1ccc(OCCN(C)C)cc1)c1ccccc1 [tamoxifen, Tamoxifen, reference compound] | – | – | – | – | – | – | – | – | – | – | – | – | – | – | – | – | – | – | – | decrease in number of neutrophils ([4]; mice treated with tamoxifen 50 mg/kg i.p. alone (control group), 3 weeks, relative to normal group): about 37% |
